Data on 1 molecule can be found in US20030013635A1, “Method for the treatment of depression by inhibition of NAALADase” (priority 2001, published 2003).

In this assay the test system is socially defeated mice. Description: social defeat (SD) model in the mouse, social interaction with a non-aggressive intruder. The format is in vivo. The text has this:
N-acetylaspartylglutamate (NAAG) is the most abundant peptide neurotransmitter in the brain. Glu release is increased during stress. Inhibiting glutamatergic tone by inhibiting NAALADase proves an antidepressant in the social defeat (SD) model. The SD model is a form of conditioned contextual fear, in which once-defeated mice retain a long-lasting over-generalized fear and avoidance of all mice (even non-aggressive ones) and lose normal species-appropriate territorial defense.
The SD model is a form of conditioned contextual fear, in which once-defeated mice retain a long-lasting over-generalized fear and avoidance of all mice (even non-aggressive ones), losing normal species-appropriate territoriality [Lumley et al., 1999] and displaying immobility in a swim test—a behavior associated with models of depression [Hebert et al., 1998].
Thus, GPI 5232 increased normal territoriality and other species-appropriate social behavior. In sum, this drug diminished behaviors associated with conditioned contextual fear. It is also believed to reduce depression.

Consider `O=C(O)CCC(CP(=O)(O)Cc1c(F)c(F)c(F)c(F)c1F)C(=O)O` (stereo not drawn) [GPI 5232], for which, for the setting “SD model”, the “behaviors associated with conditioned contextual fear” value was “markedly diminished”; the “normal territoriality and other species-appropriate social behavior” value is “increased”. The “display of territorial behavior in the form of runback re-approaches” value (acute injection, social interaction with a non-aggressive intruder (FIG. 1)) is on record as “significantly increased”.
